The values below come from US20240091267A1, “PRE-TREATMENT OF MSC WITH PPARB/DELTA AGONIST FOR TREATMENT OF ISCHEMIA-REPERFUSION INJURY” (Universite de Montpellier, priority 2020, published 2024).

Assay [1] deals with MSC. The assay is described as follows: Specific DNA fragmentation (Cell Death ELISA) in MSC exposed to H2O2-induced oxidative stress. In kind it is cell-based, mouse. The following applies: then 250 μM H2O2 4 h, vs naive MSC/H2O2. The protocol: FIG. 6: Increased resistance to oxidative stress and survival of PPARβ/δ-primed MSC. (A) 48 hours after the seeding step in complete medium, MSC were subjected to H2O2-induced oxidative stress during 4 hours in minimal medium with serum deprivation. Pharmacological preconditioning of MSC using PPARβ/δ agonist or antagonist was performed 24 hours before oxidative stress exposure. At the end of the protocol, cell death or relative gene expression was analyzed measuring specific DNA fragmentation by ELISA and transcript amounts by RT-qPCR. (B): Scatter plot and bars were presented for specific DNA fragmentation quantification measured in MSC treated with H2O2 at various concentrations (0, 100, 150, 250, 500 and 750 μM) for 4 h in minimal medium. Data (normalized by the control value obtained with untreated MSC) were plotted as scatter dot blots and mean±SD for each group of treatment and compared using Kruskal-Wallis (Dunn's post hoc test) and were noted **** for p<0.0001 (250 group, n=11 independent cultures vs 0 group, n=13), ** for p=0.0013 (100 group, n=10 vs 0 group, n=13), ** for p=0.0015 (350 group, n=9 vs 0 group, n=13), **for p=0.0015 (500 group, n=9 vs 0 group, n=13) and * for p=0.0332 (750 group, n=3 vs 0 group, n=13). (C): Scatter plots and bars were presented for specific DNA fragmentation quantification measured in MSC treated with 250 μM of H2O2 pretreated with GW0742 or GSK0660 at 0.1 and 1 μM 24 hours before H2O2 exposure. […]
DNA fragmentation was quantified in vitro on cell lysates with an enzyme-linked immunosorbent assay kit (Cell Death ELISA; Roche Diagnostics) designed to measure of histone-complexed DNA fragments (mono- and oligonucleosomes) out of the cytoplasm of cells after the induction of apoptosis.
To do this, MSC were submitted to an IR-simulated stress in vitro using various concentrations of H2O2 (100, 250, 350, 500 and 750 μM; see the protocol on FIG. 6A) for 4 hours. Apoptosis quantification was assessed by the mean of specific DNA fragmentation measurement for the different groups of treatment. […]

The test system of assay [2] is MSC. The assay is described as follows: RT-qPCR relative gene expression in untreated or preconditioned MSC. In kind it is cell-based, mouse. The settings on record: for hgf transcripts / vegf-α transcripts / pdgf transcripts: then H2O2 4 h, vs untreated MSC/H2O2; for bcl2 gene expression level: then H2O2, vs H2O2-treated MSC. As to the method: FIG. 8: (A) 48 hours after the seeding step in complete medium, MSC were subjected to H2O2-induced oxidative stress during 4 hours in minimal medium with serum deprivation. Pharmacological preconditioning of MSC using PPARβ/δ agonist or antagonist was performed 24 hours before oxidative stress exposure. At the end of the protocol, relative gene expression was analyzed measuring transcript amounts by RT-qPCR. mRNA expression levels in untreated or preconditioned MSC exposed to an oxidative stress were assessed by RT-qPCR for (B) vegf: data (mean±SEM) were compared using ANOVA and the Tukey's post hoc for multiple comparisons (normality test passed). […] P values were ns versus H2O2, n=7 for control n=8, GW0742 0.1 μM n=7, GW0742 1 μM n=9, GSK0660 0.1 μM n=6 and GSK0660 1 μM n=9; and (D) for pdgf: data (mean±SEM) were compared using ANOVA and the Tukey's post hoc for multiple comparisons (normality test passed). […] For statistical analysis comparisons were made to the untreated MSC/H2O2 group.
MSCs were pre-incubated for 24 hours with either PPARβ/δ antagonists GSK3787 (0.1 and 1 μM), PPARβ/δ inverse agonist GSK0660 (0.1 and 1 μM) or PPARβ/δ agonist GW0742 (0.1, 1 and 5 μM) before to be washed with PBS and used in co-cultures experiments or injected in the myocardium. When indicated, MSCs were labeled with the fluorescent cell-tracer CM-Dil (Molecular Probes). MSC were collected and suspended in 5 mL PBS containing CM-Dil (10^7 cells/10 μg) prior to be incubated at 37° C. for 5 minutes followed by 15 minutes at 4° C., in the dark. Labeled MSCs were washed 2 times in PBS, resuspended in PBS and maintained at 4° C. prior to be injected in the myocardium.
Isolation of total RNA for each sample was performed using the RNeasy Mini Kit (Qiagen, Courtaboeuf). The quantity and quality of the RNA extracted were defined by using a NanoDrop ND-1000 spectrophotometer (NanoDrop ND, Thermo Fisher Scientific). Then, using the SensiFAST cDNA synthesis kit (Bioline), cDNA was synthesized by reverse transcribing 500 ng RNA into cDNA. Using the SensiFAST™ SYBR (Bioline) and a LightCycler® 480 Detection system Quantitative following manufacturer's recommendations, PCR were performed. Primers specific for angpl4, pdk4, bcl2, hgf, pdgf, nrf2 were designed using the Primer3 software. Data were normalized to the housekeeping gene ribosomal protein S9 (RPS9) and the values were expressed as relative mRNA level of specific gene expression as calculated using the 2^−ΔCt method.
In general terms: Real-time PCR tracks product formation cycle by cycle.

[3] abbreviates: MSC pretreated 24 h with 0.1 μM.
The mark [4] stands for this setting: pretreatment of cultured MSC (data not shown).

The structures appear in SMILES notation.

In the case of `Cc1cc(SCc2sc(-c3ccc(C(F)(F)F)c(F)c3)nc2C)ccc1OCC(=O)O` [GW0742], the “Specific DNA fragmentation (MSC resistance to oxidative stress)” value (“Specific DNA fragmentation” for short) with MSC [1] (setting [3]) is on record as “did not modify the capacity of MSC to resist against oxidative stress”. Besides, the “Specific DNA fragmentation” value in the assay on MSC [1] (MSC pretreated 24 h with 1 μM) is recorded as “enhanced significantly MSC resistance”. Also, in the assay on MSC [2] (setting [3]), the hgf transcripts result is listed as “did not modify”, the vegf-α transcripts entry is “did not modify” and the “bcl2 gene expression level” value was “significant increase in bcl2 gene expression level”. For the same compound, in the assay with MSC [2] (MSC pretreated 24 h with 1 μM), the hgf transcripts result is recorded as “did not modify”, the pdgf transcripts entry is on record as “significantly increased the expression of pdgf” and the vegf-α transcripts entry is reported as “did not modify”. Moreover, in the assay with MSC [2] (setting [4]), the “angpl4 target gene expression level” value is given as “increased expression levels” and the “pdk4 target gene expression level” value is “increased expression levels”.

For the compound `COC(=O)c1sccc1S(=O)(=O)Nc1ccc(Nc2ccccc2)cc1OC` [GSK0660], the “Specific DNA fragmentation” value with MSC [1] (MSC pretreated 24 h with 1 μM) is “impaired MSC resistance against H2O2-induced oxidative without reaching significance”. Besides, in the assay with MSC [2] (setting [3]), the hgf transcripts result is “A similar tendency was observed”, the pdgf transcripts entry is “A similar tendency was observed” and the vegf-α transcripts entry is listed as “significantly decreased”. For the same compound, in the assay on MSC [2] (MSC pretreated 24 h with 1 μM), the hgf transcripts result is on record as “A similar tendency was observed”, the pdgf transcripts result was “A similar tendency was observed”, the vegf-α transcripts entry was “significantly decreased” and the “bcl2 gene expression level” value was “significantly reduced bcl2 gene expression level”.
